Test results as given in patent US5693628A, “11-benzaldoxime-estra-diene derivatives, methods for their production and pharmaceuticals containing these compounds” (priority 1994, dated 1997).

How the values were obtained:
progesterone receptor = target: T1, progesterone receptor (Oryctolagus cuniculus, UniProt P06186); assay: relative molar bonding affinity to progesterone receptor (competitive bonding); format: binding; settings: progesterone = 100%; uterine cytosol of estradiol-primed rabbit; 3H-ORG 2058, 5 nM; 18 h, 0-4° C.
T1 construct: uterine cytosol of the estradiol-primed rabbit; from tissue; host or cells: uterus (cytosol) of estradiol-primed rabbit
T1 sequence (P06186 1-930): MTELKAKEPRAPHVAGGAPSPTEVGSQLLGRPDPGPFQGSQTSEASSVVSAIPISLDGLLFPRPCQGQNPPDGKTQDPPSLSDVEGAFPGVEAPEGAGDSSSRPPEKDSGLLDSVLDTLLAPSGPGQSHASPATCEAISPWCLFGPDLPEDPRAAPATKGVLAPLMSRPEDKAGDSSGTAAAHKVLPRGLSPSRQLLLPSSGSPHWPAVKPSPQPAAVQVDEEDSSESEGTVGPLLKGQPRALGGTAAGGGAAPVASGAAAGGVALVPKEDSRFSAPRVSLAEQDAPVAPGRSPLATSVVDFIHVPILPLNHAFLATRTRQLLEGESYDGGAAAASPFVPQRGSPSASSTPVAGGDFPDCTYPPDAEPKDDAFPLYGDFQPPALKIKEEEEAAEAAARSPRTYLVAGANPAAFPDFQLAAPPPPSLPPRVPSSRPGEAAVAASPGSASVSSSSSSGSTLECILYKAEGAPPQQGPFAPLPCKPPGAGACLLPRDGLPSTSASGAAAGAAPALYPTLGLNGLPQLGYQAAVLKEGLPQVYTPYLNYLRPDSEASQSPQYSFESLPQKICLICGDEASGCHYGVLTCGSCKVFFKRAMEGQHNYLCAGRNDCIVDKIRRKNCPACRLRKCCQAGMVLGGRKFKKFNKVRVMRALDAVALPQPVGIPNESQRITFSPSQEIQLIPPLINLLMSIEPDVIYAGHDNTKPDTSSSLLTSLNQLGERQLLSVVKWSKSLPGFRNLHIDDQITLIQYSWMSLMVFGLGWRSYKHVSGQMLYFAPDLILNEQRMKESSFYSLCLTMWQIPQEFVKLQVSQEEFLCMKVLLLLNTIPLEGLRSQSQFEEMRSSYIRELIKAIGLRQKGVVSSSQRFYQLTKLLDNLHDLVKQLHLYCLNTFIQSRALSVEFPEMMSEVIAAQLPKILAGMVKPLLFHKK
Method: (§1) Measurement of bonding affinity for receptors
(§2) Receptor bonding affinity was determined by competitive bonding of a specifically binding ^3 H labelled hormone (tracer) and the compound to be tested to receptors in the cytosol from animal target organs. It was tried to obtain receptor saturation and a balanced reaction. The following incubation conditions were selected:
Progesterone receptor: uterine cytosol of the estradiol-primed rabbit, kept at -30° C. in TED buffer (20 mM Tris/HCl, pH 7.4; 1 mM ethylene diamine tetraacetate, 2 mM dithio threitol) with 250 mM of saccharose.
(§3) After an incubation period of 18 hours at 0°-4° C., bonded and free steroid was separated by mixing in active carbon/dextrane (1%/0.1%), centrifuging off and measuring the bonded ^3 H activity in the supernatant.
(§4) The IC50 for the compound to be tested and for the reference substance were determined from measurements in series of concentrations.

glucocorticoid receptor = target: T2, glucocorticoid receptor (Rattus norvegicus, UniProt P06536); assay: relative molar bonding affinity to glucocorticoid receptor (competitive bonding); format: binding; settings: dexamethasone = 100%; thymus cytosol of adrenalectomized rat; 3H-dexamethasone, 20 nM; 18 h, 0-4° C.
T2 construct: thymus cytosol of the adrenalectomized rat; from tissue; host or cells: thymus (cytosol) of adrenalectomized rat
T2 sequence (P06536 1-795): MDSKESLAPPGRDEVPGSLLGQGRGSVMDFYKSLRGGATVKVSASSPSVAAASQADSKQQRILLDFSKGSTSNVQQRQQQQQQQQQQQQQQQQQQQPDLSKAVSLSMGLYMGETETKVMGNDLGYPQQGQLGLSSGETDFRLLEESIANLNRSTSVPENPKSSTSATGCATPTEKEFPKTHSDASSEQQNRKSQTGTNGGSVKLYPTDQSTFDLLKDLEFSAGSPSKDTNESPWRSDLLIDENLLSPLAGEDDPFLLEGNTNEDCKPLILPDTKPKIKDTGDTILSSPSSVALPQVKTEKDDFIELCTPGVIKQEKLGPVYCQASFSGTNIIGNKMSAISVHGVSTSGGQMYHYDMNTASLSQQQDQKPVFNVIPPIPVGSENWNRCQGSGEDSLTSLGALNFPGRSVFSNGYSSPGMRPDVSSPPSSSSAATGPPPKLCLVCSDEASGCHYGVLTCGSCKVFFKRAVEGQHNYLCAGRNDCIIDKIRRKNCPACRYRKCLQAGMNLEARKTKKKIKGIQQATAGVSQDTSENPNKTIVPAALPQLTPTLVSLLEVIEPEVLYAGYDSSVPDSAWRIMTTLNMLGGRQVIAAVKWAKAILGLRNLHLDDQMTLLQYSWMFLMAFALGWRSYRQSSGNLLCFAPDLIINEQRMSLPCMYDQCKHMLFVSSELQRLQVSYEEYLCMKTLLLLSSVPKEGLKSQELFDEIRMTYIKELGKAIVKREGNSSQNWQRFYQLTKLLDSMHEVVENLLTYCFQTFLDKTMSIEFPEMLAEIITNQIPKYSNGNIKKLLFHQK
Method: as §1, §2
Glucocorticoid receptor: thymus cytosol of the adrenalectomized rat, thymi kept at -30° C., buffer: TED. Tracer: ^3 H-dexamethasone, 20 nM; reference substance: dexamethasone.
as §3, §4

relative molar bonding affinity (RBA) to progesterone receptor (progesterone receptor): 302%
relative molar bonding affinity (RBA) to glucocorticoid receptor (glucocorticoid receptor): 78%
SMILES: COC[C@]1(OC)CC[C@H]2[C@@H]3CCC4=CC(=O)CCC4=C3[C@@H](c3ccc(C=NO)cc3)C[C@@]21C [Example 1, 11β-[4-(hydroximinomethyl)phenyl]-17β-methoxy-17α-methoxymethyl-estra-4,9-diene-3-on]
